Like-named read-outs stand apart in the source and are kept apart here.
Columns and labels:
C57BL/6J mice [1] = test: Tail suspension test (TST); format: in vivo; settings: 30 mg/kg orally for 3 days, test 2 h after third dose, last 4 min of 6 min
Procedure: (§1) C57BL/6J mice (male, 9–10 weeks old) were used for the behavioral tests. All mice were maintained under a 12:12-h light–dark cycle (lights on at 7:00 A.M.) with access to food and water ad libitum. Animal care and handling were performed according to guidelines by the Institutional Animal Care and Use Committee of Yonsei University (Seoul, Korea). Antalarmin, BMK-C203, and BMK-C205 were dissolved in peceol: TPGS: PEG400 (vehicle) (70%:20%:10%, respectively) and administered orally at a dose of 30 mg/kg for 3 days at 24-h intervals. All behavioral tests were conducted 2 h after the third drug was administered during light periods of the circadian cycle. TSTs were performed to verify the effect of CRF1R antagonists on depressive-like behavior. Each mouse was suspended by its tail on a bar 30 cm above the ground for 6 min using adhesive tape. Their movements were recorded by a camera and analyzed using the same parameters via EthoVision XT 8.5 software (Noldus Technologies). Immobility times during the last 4 min of the task were measured. Each mouse was placed in an open field (40 cm × 40 cm × 40 cm chamber) for 1 h to conduct an open field test (OFT) and test locomotion. Their locomotion was recorded and analyzed using EthoVision XT 8.5.

PK studies in rats = format: in vivo, SD rats; settings: male, Sprague-Dawley, rat, plasma, SD rats, n = 3
Procedure: CRF1R antagonist PKs were studied in naïve male SD rats following a single i.v. bolus injection or p.o. gavage. The i.v. injections used Antalarmin, BMK-C203, or BMK-C205 at doses of 5 mg/kg and BMK-I-152 at a dose of 1 mg/kg. The antagonist’s doses in the p.o. injection was 10 mg/kg. Three male SD rats weighing between 220 and 260 g were used to evaluate CRF1R antagonist PKs. The vehicle used for all dose groups was […]: TPGS: PEG400 (70%:20%:10%). Blood samples were collected from all treatment groups at 0 h (predose), 0.083, 0.25, 0.5, 1, 2, 4, 6, 8, and 24 h after dosing. Antalarmin, BMK-I-152, BMK-C203, and BMK-C205 concentrations in the plasma samples were determined via LC‒MS/MS (LLOQ was 1 ng/mL for CRF1R antagonists). PK parameter estimates were determined using the serial time-course profiles for plasma concentrations of three male rats per group via noncompartmental analysis using commercially available software (Phoenix WinNonlin, version 8.1, Pharsight Corporation, Mountain View, CA).

ACTH serum levels = test: Serum ACTH level after TST (ELISA); format: in vivo, mice; settings: 30 mg/kg orally for 3 days, immediately after TST
Procedure: (§2) The mice were anesthetized via intraperitoneal injections of 2,2,2-tribromoethanol (300 mg/kg, Sigma-Aldrich) immediately after the TST and before blood from the heart was sampled. Blood samples were collected in plastic tubes and incubated at room temperature for at least 2 h. The sera were extracted after centrifugation at 13,000×g for 10 min at 4 °C. CORT levels were determined via LC‒MS analysis. Serum (10 µL) was mixed with 20 μL of an internal standard solution (d4-cortisol) to prepare the samples. Subsequently, 100 μL of acetonitrile was added, and the mixture was centrifuged at 16,000×g for 10 min for protein precipitation. The supernatants (60 μL) were transferred into an autosampler vial, and 30 μL of water was added for efficient separation via high-performance liquid chromatography (HPLC). LC‒MS was performed with a triple quadrupole mass spectrometer coupled with HPLC using a C18 reversed-phase column. CORT levels were determined using a calibration curve constructed using CORT-spiked mouse serum. Serum samples (20 μL) were analyzed using a commercially available ELISA kit for ACTH (ab263880, Abcam) to measure ACTH serum levels.

C57BL/6J mice [2] = test: Open field test (OFT); format: in vivo; settings: 30 mg/kg orally for 3 days, 1 h open field
Procedure: as §1

CORT serum levels = test: Serum CORT level after TST (LC-MS); format: in vivo, mice; settings: 30 mg/kg orally for 3 days, immediately after TST
Procedure: as §2

CRF1R [3] = biological target: T1, CRF1R (Homo sapiens, UniProt P34998); test: Calcium mobilization assay (hCRF1R Ca2+ antagonism); format: cell-based; settings: for IC50 (in words): reason for not selecting
T1 construct: HEK-Gα15 cells (Eurofins Scientific) transfected with CRF1R; host or cells: HEK-Gα15 cells
T1 sequence (P34998 24-415): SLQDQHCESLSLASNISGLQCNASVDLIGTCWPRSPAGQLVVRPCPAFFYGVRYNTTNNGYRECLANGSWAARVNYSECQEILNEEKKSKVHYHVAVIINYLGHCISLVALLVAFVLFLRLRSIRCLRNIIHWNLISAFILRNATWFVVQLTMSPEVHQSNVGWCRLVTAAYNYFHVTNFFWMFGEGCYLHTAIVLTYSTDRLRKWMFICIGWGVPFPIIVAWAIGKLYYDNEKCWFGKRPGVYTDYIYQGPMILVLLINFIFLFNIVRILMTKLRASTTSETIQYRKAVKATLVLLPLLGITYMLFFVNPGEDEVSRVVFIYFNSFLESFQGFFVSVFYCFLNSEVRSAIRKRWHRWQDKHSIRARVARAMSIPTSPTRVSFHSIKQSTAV
Procedure: HEK-Gα15 cells (Eurofins Scientific) transfected with CRF1R were plated in 96-well plates at a density of 50,000 cells/100 μL per well and incubated overnight. The next day, the cells were incubated with a Calcium 6 reagent (Molecular Devices) containing 0.5 mM probenecid (Sigma) at 37 °C for 1 h before adding compounds or dimethyl sulfoxide DMSO (positive and negative control; final concentration 0.1%). After incubation at 37 °C for 1 h, 50 μL urocortin (final concentration 2 nM) (Tocris) was dispensed into the well with FLIPR-tetra (Molecular Devices). […] Intracellular calcium changes were recorded at excitation and emission wavelengths of 470–495 and 515–575 nm, respectively. Relative fluorescence units (RFU) were calculated as the fluorescence signal maximum minus the signal minimum for 30 s after addition. The graphs and IC50 concentrations were calculated using GraphPad Prism 6 software.

CYP3A4 = CYP3A4 (Homo sapiens, UniProt P08684); test: CYP inhibition assay CYP3A4 (midazolam 1'-hydroxylase); settings: 10 μM, human liver microsomes, n = 3
CYP3A4, sequence (P08684 whole entry): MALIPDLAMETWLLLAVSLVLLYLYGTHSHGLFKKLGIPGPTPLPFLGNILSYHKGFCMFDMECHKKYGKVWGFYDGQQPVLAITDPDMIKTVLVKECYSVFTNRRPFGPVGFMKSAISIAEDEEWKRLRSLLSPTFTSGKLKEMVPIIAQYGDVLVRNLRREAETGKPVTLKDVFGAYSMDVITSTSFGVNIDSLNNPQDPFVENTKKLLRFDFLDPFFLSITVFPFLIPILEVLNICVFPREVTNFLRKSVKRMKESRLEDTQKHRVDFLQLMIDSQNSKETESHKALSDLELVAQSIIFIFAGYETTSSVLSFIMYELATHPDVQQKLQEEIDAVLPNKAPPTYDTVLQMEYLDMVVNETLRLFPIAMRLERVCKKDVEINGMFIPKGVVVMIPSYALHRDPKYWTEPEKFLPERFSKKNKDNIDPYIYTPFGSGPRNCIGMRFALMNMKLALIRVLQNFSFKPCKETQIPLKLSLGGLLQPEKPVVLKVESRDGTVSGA

[4] = design: method as in PMID 21308801; settings: liver microsomal stability assay; cited from earlier work
[5] = Microsomal stability assay, rat liver microsomes; format: in vitro ADME; settings: 1 μM, n = 3
Procedure: The incubation mixtures consisted of 0.5 mg/mL human (Corning, #452117) and rat liver microsomes (Corning, #452701), 0.1 M phosphate buffer (pH 7.4), NADPH regeneration system, and substrates (CRF1R antagonist compounds, 1 µM) in a total volume of 100 μL. […] LC‒MS/MS was performed on a TSQ Vantage (Thermo, USA) coupled with a Nexera XR LC system (Shimadzu, Japan)[32]. The separation was performed on a Kinetex C18 column (2.1 × 100 mm, 2.6 µm, Phenomenex, USA) using a mobile phase of 0.1% formic acid and acetonitrile containing 0.1% formic acid. A gradient program was used for elution at a flow rate of 0.3 mL/min. The data were acquired using multiple-reaction monitoring (MRM) in positive mode. Detection of the ions was performed by monitoring the m/z transition of 494.1 → 336.1 for BMK-I-152, 598.1 → 233.2 for BMK-C203, and 488.1 → 434.1 for BMK-C205.

CYP2C9 = biological target: T2, CYP2C9 (Homo sapiens, UniProt P11712); test: CYP inhibition assay CYP2C9 (diclofenac 4-hydroxylase); format: in vitro ADME
T2 construct: 0.25 mg/mL human liver microsomes; from tissue; host or cells: human liver microsomes
T2 sequence (P11712 whole entry): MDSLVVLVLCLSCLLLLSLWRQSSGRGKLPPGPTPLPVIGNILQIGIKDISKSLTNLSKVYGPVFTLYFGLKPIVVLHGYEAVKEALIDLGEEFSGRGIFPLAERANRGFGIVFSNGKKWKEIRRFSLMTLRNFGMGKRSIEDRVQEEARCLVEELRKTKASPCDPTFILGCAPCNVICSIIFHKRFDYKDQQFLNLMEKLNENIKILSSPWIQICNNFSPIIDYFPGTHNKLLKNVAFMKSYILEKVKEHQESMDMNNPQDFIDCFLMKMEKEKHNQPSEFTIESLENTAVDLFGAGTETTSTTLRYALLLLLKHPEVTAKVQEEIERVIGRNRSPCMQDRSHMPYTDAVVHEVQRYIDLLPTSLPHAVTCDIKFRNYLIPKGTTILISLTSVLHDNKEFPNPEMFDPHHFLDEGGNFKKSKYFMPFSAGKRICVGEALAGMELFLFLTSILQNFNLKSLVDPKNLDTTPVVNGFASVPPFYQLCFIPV

CYP1A2 = biological target: T3, CYP1A2 (Homo sapiens, UniProt P05177); test: CYP inhibition assay CYP1A2 (phenacetin O-demethylase); format: in vitro ADME
T3 construct: 0.25 mg/mL human liver microsomes; from tissue; host or cells: human liver microsomes
T3 sequence (P05177 1-516): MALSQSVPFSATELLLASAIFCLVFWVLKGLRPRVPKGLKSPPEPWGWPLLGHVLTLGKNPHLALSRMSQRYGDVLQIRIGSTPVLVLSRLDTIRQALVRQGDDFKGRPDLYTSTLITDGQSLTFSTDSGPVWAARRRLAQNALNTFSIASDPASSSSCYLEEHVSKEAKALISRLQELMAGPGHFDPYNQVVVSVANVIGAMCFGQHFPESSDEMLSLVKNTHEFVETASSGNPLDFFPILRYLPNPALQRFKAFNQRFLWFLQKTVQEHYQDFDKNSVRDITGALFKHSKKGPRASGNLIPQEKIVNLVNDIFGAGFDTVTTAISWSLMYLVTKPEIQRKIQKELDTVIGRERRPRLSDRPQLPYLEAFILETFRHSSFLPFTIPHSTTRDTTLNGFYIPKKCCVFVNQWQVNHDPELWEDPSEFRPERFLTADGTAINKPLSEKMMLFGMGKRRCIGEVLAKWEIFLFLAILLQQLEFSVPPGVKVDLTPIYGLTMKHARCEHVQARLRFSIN

CYP2D6 = CYP2D6 (Homo sapiens, UniProt P10635); test: CYP inhibition assay CYP2D6 (dextromethorphan O-demethylase); settings: 10 μM, human liver microsomes, n = 3
CYP2D6, sequence (P10635 whole entry): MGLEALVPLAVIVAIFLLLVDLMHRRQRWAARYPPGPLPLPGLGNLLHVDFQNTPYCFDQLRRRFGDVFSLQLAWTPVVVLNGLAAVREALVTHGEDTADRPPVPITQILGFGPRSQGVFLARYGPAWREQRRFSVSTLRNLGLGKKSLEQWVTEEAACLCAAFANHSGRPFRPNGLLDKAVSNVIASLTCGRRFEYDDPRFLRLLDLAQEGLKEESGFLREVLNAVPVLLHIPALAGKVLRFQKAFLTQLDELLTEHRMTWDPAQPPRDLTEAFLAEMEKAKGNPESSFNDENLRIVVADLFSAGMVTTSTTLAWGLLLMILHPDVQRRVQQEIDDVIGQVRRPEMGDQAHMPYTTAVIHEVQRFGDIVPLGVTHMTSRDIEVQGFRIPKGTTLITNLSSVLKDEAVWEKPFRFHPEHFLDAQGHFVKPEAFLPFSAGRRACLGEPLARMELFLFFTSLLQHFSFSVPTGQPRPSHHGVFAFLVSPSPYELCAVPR

CRF1R [6] = biological target: CRF1R; design: method as in PMID 21308801; settings: cited from earlier work
[7] = Microsomal stability assay, human liver microsomes; format: in vitro ADME
Procedure: LC‒MS/MS was performed on a TSQ Vantage (Thermo, USA) coupled with a Nexera XR LC system (Shimadzu, Japan)[32]. The separation was performed on a Kinetex C18 column (2.1 × 100 mm, 2.6 µm, Phenomenex, USA) using a mobile phase of 0.1% formic acid and acetonitrile containing 0.1% formic acid. A gradient program was used for elution at a flow rate of 0.3 mL/min. The data were acquired using multiple-reaction monitoring (MRM) in positive mode.

CYP2C19 = biological target: T4, CYP2C19 (Homo sapiens, UniProt P33261); test: CYP inhibition assay CYP2C19 (S-mephenytoin 4-hydroxylase); format: in vitro ADME
T4 construct: 0.25 mg/mL human liver microsomes; from tissue; host or cells: human liver microsomes
T4 sequence (P33261 whole entry): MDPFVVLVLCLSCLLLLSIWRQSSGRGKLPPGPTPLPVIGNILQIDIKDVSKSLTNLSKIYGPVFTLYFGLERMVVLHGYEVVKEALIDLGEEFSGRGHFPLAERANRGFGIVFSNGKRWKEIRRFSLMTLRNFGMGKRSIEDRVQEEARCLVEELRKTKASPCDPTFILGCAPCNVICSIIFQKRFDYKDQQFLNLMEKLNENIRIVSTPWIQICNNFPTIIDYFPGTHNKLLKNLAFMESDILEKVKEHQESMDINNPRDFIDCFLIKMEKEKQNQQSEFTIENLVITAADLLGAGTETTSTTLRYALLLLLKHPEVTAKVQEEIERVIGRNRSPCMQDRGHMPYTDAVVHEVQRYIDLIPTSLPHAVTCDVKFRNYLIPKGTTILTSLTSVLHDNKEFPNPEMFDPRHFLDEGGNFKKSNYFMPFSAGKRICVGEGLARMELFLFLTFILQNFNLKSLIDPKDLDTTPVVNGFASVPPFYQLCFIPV

[8] = 10 μM, human liver microsomes, n = 3

CCCCN(CC)c1nc(C)nc2c1c(C)c(C)n2-c1c(C)cc(C)cc1C [Antalarmin, reference compound]
TST immobility time versus vehicle (C57BL/6J mice [1]): no significant difference | AUC(0-t) (PK studies in rats; iv, I.V, 5 mg/kg): 4370 ng·h/mL | half-life (PK studies in rats; iv, I.V, 5 mg/kg): 3.09 h | AUC(0-t) (PK studies in rats; po, P.O, 10 mg/kg): 660 ng·h/mL | Cmax (PK studies in rats; po, P.O, 10 mg/kg): 146 ng/mL | Tmax (PK studies in rats; po, P.O, 10 mg/kg): 4 h | bioavailability (PK studies in rats; po, P.O, 10 mg/kg): 7.6% | half-life (PK studies in rats; po, P.O, 10 mg/kg): 4.08 h | serum ACTH level versus vehicle (ACTH serum levels): no significant difference | OFT locomotion / overall moving distance (C57BL/6J mice [2]): did not differ among groups | serum CORT level versus vehicle (CORT serum levels): no significant difference

CCCCN(CCCC(F)(F)F)c1nc(C)nc2c(-c3c(OC)cc(Br)cc3OC)c(C)nn12 [BMK-C207]
IC50 (in words) (CRF1R [3]): high IC50 values

COc1cc(Br)cc(OC)c1-c1c(C)nn2c(N(CCCC(F)(F)F)CC3CC3)nc(C)nc12 [BMK-C209]
IC50 (in words) (CRF1R [3]): high IC50 values

CCCN(CCCC(F)(F)F)c1nc(C)nc2c(-c3c(OC)cc(Br)cc3OC)c(C)nn12 [BMK-C210]
IC50 (in words) (CRF1R [3]): high IC50 values

COCCN(CCOC)c1nc(C)nc2c(-c3c(OC)cc(Br)cc3OC)c(C)nn12 [BMK-I-152]
CYP3A4, percentage of control activity (CYP3A4): 99.8 ± 3.0 percentage of control activity | IC50 (CRF1R [3]; HEK-Gα15 cells transfected with CRF1R, urocortin 2 nM, n = 3): 26 nM | IC50 fold lower than that of Antalarmin (CRF1R [3]; hCRF1R Ca2+ antagonism assay): ~12 fold | IC50 fold lower than that of CP376395 (CRF1R [3]; hCRF1R Ca2+ antagonism assay): ~ 55 fold | half-life [4]: < 0.5 h | AUC(0-t) (PK studies in rats; iv, I.V, 1 mg/kg): 913 ng·h/mL | half-life (PK studies in rats; iv, I.V, 1 mg/kg): 13.5 h | AUC(0-t) (PK studies in rats; po, P.O, 10 mg/kg): 3080 ng·h/mL | Cmax (PK studies in rats; po, P.O, 10 mg/kg): 267 ng/mL | Tmax (PK studies in rats; po, P.O, 10 mg/kg): 6.67 h | bioavailability (PK studies in rats; po, P.O, 10 mg/kg): 33.8% | half-life (PK studies in rats; po, P.O, 10 mg/kg): 5.66 h | Liver microsomal stability, Rat (percentage remaining after 30 min) [5]: 35.3 ± 5.85% | CYP2C9, percentage of control activity (CYP2C9; [8]): 89.9 ± 7.0 percentage of control activity | CYP1A2, percentage of control activity (CYP1A2; [8]): 98.8 ± 1.8 percentage of control activity | CYP2D6, percentage of control activity (CYP2D6): > 100 ± 1.6 percentage of control activity | Ki (CRF1R [6]): 0.35 nM | Liver microsomal stability, Human (percentage remaining after 30 min) ([7]; 1 μM, n = 3): 27.7 ± 3.87% | liver microsomal stability (remaining) ([7]; in almost all species (human and rat liver microsomes), 30 min): below 35% | CYP2C19, percentage of control activity (CYP2C19; [8]): 83.2 ± 5.0 percentage of control activity

CC(=O)N1CCN(c2ccc(OCC3COC(Cn4ccnc4)(c4ccc(Cl)cc4Cl)O3)cc2)CC1 (stereo not shown) [Ketoconazole, reference compound]
CYP2C9, percentage of control activity (CYP2C9; reference chemical at 0.1 μM): 94.0 ± 9.2 percentage of control activity | CYP1A2, percentage of control activity (CYP1A2; reference chemical at 0.1 μM): 94.3 ± 5.3 percentage of control activity | CYP2C19, percentage of control activity (CYP2C19; reference chemical at 0.1 μM): > 100 ± 12.9 percentage of control activity

From publication PMC10545732, “Structure-based drug discovery of a corticotropin-releasing hormone receptor 1 antagonist using an X-ray free-electron laser” (Experimental & Molecular Medicine, 2023)
